In patent US20240270810A1, “PREPARATION AND APPLICATION OF POLYPEPTIDE” (GUANGDONG RAYNOVENT BIOTECH CO., LTD., priority 2021, published 2024):

Tests used:
[1] = target: T1, GLP-1R (Homo sapiens, UniProt P43220); assay: In vitro GLP-1R agonistic activity test (cAMP kit); type: cell-based; details: HEK293 host cells
T1 construct: host or cells: HEK293
Procedure: (§1) The cell lines were constructed by Wuxi […] (Shanghai) Co., Ltd. See details in Table 1 below. [table] [table] The test compounds were diluted at a 4-fold dilution factor in 10 points, starting from an initial concentration of 30 μM. The dilution was carried out by Bravo. • 1) 100 nL of compounds were transferred to an OptiPlate-384 plate by Echo. • 2) The OptiPlate-384 plate was centrifuged at 1000 rpm for 5 s. • 1) A GLP-1R/GIPR cell cryovial was placed in warm water at 37° C. for rapid thawing. • 2) The cell suspension was transferred into a 15 mL Transfer centrifugal tube and rinsed with 10 mL of HBSS gently. • 3) The centrifugal tube was centrifuged at 1000 rpm at room temperature for 1 min. • 4) The supernatant was discarded. • 5) The bottom cells were gently dispersed, then gently rinsed with 10 mL of HBSS, the centrifugal tube was centrifuged to settle the cells, and finally the cells were resuspended in an experimental buffer. • 6) Cell density and viability were measured by Vi-cell. • 7) The GLP-1R/GIPR cells were diluted with the experimental buffer to a concentration of 2.0*10^5/mL. • 8) […] of the diluted cell suspension was transferred into the OptiPlate-384 plate. • 9) Incubation was performed at room temperature for 30 min. • 1) 10 μL of 800 nM gradient diluted cAMP standard was added into the empty wells of the OptiPlate-384 plate. • 2) 10 μL of cAMP assay reagent was added. • 3) The OptiPlate-384 plate was covered with TopSeal-A film and incubated at room temperature for 60 min. The TopSeal-A film was removed, and readout was performed on En Vision.

[2] = target: T2, GIPR (Homo sapiens, UniProt P48546); assay: In vitro GIPR agonistic activity test (cAMP kit); type: cell-based; details: CHO host cells, without 1% HSA
T2 construct: host or cells: CHO
T2 sequence (P48546 22-466): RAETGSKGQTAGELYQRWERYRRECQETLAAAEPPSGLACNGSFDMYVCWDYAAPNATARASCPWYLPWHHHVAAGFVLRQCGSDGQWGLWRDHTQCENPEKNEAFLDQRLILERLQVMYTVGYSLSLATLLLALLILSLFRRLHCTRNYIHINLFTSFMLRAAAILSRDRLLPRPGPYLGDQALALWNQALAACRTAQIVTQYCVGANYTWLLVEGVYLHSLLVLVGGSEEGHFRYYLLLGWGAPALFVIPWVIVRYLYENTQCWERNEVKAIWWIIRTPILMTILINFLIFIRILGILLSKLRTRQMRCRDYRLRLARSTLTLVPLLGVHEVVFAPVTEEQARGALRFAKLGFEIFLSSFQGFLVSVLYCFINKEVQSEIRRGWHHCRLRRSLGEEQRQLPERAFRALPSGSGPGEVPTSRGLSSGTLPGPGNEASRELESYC
Procedure: as §1, with “[table] [table]” left out

[3] = target: GLP-1R (UniProt P43220 24-463, limits assumed); assay: cell-based or functional assay
[4] = target: T3, GIPR (UniProt P48546 22-466, limits assumed); assay: cell-based or functional assay
T3 sequence (looked up): T2 sequence (P48546 22-466)

T1 sequence (P43220 24-463, species assumed): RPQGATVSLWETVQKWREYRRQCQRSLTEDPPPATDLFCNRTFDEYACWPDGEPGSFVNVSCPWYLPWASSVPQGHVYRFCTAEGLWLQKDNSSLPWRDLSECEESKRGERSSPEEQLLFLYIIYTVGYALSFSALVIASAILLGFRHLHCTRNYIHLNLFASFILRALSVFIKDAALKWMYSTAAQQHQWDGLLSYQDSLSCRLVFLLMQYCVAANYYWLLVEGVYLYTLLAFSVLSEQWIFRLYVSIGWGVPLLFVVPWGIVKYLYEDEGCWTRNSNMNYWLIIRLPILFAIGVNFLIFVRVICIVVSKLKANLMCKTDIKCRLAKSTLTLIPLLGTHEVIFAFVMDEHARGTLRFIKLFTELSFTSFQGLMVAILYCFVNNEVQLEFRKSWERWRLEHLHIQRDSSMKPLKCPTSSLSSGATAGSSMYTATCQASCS

CC[C@H](C)[C@H](NC(=O)[C@H](CC(C)C)NC(=O)[C@H](Cc1c[nH]c2ccccc12)NC(=O)[C@@H]1CCCCNC(=O)CN(C(=O)COCCOCCNC(=O)COCCOCCNC(=O)CC[C@H](NC(=O)CCCCCCCCCCCCCCCCCCC(=O)O)C(=O)O)CC(=O)NCCCC[C@H](NC(=O)[C@H](CCC(N)=O)NC(=O)[C@H](C)NC(=O)[C@@H](NC(=O)[C@H](CCCCN)NC(=O)[C@H](CC(=O)O)NC(=O)[C@H](CC(C)C)NC(=O)C(C)(C)NC(=O)[C@@H](NC(=O)[C@H](CO)NC(=O)[C@H](Cc2ccc(O)cc2)NC(=O)[C@H](CC(=O)O)NC(=O)[C@H](CO)NC(=O)[C@@H](NC(=O)[C@H](Cc2ccccc2)NC(=O)[C@@H](NC(=O)CNC(=O)[C@H](CCC(=O)O)NC(=O)C(C)(C)NC(=O)[C@@H](N)Cc2ccc(O)cc2)[C@@H](C)O)[C@@H](C)O)[C@@H](C)CC)[C@@H](C)CC)C(=O)N[C@@H](C)C(=O)N[C@@H](Cc2ccccc2)C(=O)N[C@@H]([C@@H](C)CC)C(=O)N1)C(=O)N[C@@H](C)C(=O)NCC(=O)NCC(=O)N1CCC[C@H]1C(=O)N[C@@H](CO)C(=O)N[C@@H](CO)C(=O)NCC(=O)N[C@@H](C)C(=O)N1CCC[C@H]1C(=O)N1CCC[C@H]1C(=O)N1CCC[C@H]1C(=O)N[C@@H](CO)C(N)=O [WX-003] gave an EC50 ([1]; with 1% HSA) of 14 nM, an EC50 ([1]; without 1% HSA) of 0.54 nM and an EC50 [2] of 1.07 nM.

Work on CC[C@H](C)[C@H](NC(=O)[C@H](CC(C)C)NC(=O)[C@H](Cc1c[nH]c2ccccc12)NC(=O)[C@H](CCC(=O)O)NC(=O)[C@@H](NC(=O)[C@H](Cc1ccccc1)NC(=O)[C@H](C)NC(=O)[C@@H]1CCCCNC(=O)CN(C(=O)COCCOCCNC(=O)COCCOCCNC(=O)CC[C@H](NC(=O)CC[C@H](NC(=O)CCCCCCCCCCCCCCCCCCC(=O)O)C(=O)O)C(=O)O)CC(=O)NCCCC[C@H](NC(=O)[C@H](CCCCN)NC(=O)[C@H](CC(=O)O)NC(=O)[C@H](CC(C)C)NC(=O)C(C)(C)NC(=O)[C@@H](NC(=O)[C@H](CO)NC(=O)[C@H](Cc2ccc(O)cc2)NC(=O)[C@H](CC(=O)O)NC(=O)[C@H](CO)NC(=O)[C@@H](NC(=O)[C@H](Cc2ccccc2)NC(=O)[C@@H](NC(=O)CNC(=O)[C@H](CCC(=O)O)NC(=O)C(C)(C)NC(=O)[C@@H](N)Cc2ccc(O)cc2)[C@@H](C)O)[C@@H](C)O)[C@@H](C)CC)C(=O)N[C@@H](C)C(=O)N[C@@H](CCC(N)=O)C(=O)N1)C(C)C)C(=O)N[C@@H](C)C(=O)NCC(=O)NCC(=O)N1CCC[C@H]1C(=O)N[C@@H](CO)C(=O)N[C@@H](CO)C(=O)NCC(=O)N[C@@H](C)C(=O)N1CCC[C@H]1C(=O)N1CCC[C@H]1C(=O)N1CCC[C@H]1C(=O)N[C@@H](CO)C(N)=O [WX-013] yielded an EC50 ([1]; without 1% HSA) of 0.057 nM and an EC50 [2] of 0.18 nM.

CC[C@H](C)[C@H](NC(=O)[C@H](CC(C)C)NC(=O)[C@H](Cc1c[nH]c2ccccc12)NC(=O)[C@@H](NC(=O)[C@@H](NC(=O)[C@H](Cc1ccccc1)NC(=O)[C@H](C)NC(=O)[C@@H]1CCCCNC(=O)CN(C(=O)COCCOCCNC(=O)COCCOCCNC(=O)CC[C@H](NC(=O)CCCCCCCCCCCCCCCCCCC(=O)O)C(=O)O)CC(=O)NCCCC[C@H](NC(=O)[C@H](CCCCN)NC(=O)[C@H](CC(=O)O)NC(=O)[C@H](CC(C)C)NC(=O)C(C)(C)NC(=O)[C@@H](NC(=O)[C@H](CO)NC(=O)[C@H](Cc2ccc(O)cc2)NC(=O)[C@H](CC(=O)O)NC(=O)[C@H](CO)NC(=O)[C@@H](NC(=O)[C@H](Cc2ccccc2)NC(=O)[C@@H](NC(=O)CNC(=O)[C@H](CCC(=O)O)NC(=O)C(C)(C)NC(=O)[C@@H](N)Cc2ccc(O)cc2)[C@@H](C)O)[C@@H](C)O)[C@@H](C)CC)C(=O)N[C@@H](C)C(=O)N[C@@H](CCC(N)=O)C(=O)N1)C(C)C)[C@@H](C)CC)C(=O)N[C@@H](C)C(=O)NCC(=O)NCC(=O)N1CCC[C@H]1C(=O)N[C@@H](CO)C(=O)N[C@@H](CO)C(=O)NCC(=O)N[C@@H](C)C(=O)N1CCC[C@H]1C(=O)N1CCC[C@H]1C(=O)N1CCC[C@H]1C(=O)N[C@@H](CO)C(N)=O [WX-008] showed an EC50 ([1]; without 1% HSA) of 0.18 nM and an EC50 [2] of 2.74 nM.

CC[C@H](C)[C@H](NC(=O)[C@H](CC(C)C)NC(=O)[C@H](Cc1c[nH]c2ccccc12)NC(=O)[C@H](CCC(=O)O)NC(=O)[C@@H](NC(=O)[C@H](Cc1ccccc1)NC(=O)[C@H](C)NC(=O)[C@@H]1CCCCNC(=O)CN(C(=O)COCCOCCNC(=O)COCCOCCNC(=O)CC[C@H](NC(=O)CC[C@H](NC(=O)CCCCCCCCCCCCCCCCC(=O)O)C(=O)O)C(=O)O)CC(=O)NCCCC[C@H](NC(=O)[C@H](CCCCN)NC(=O)[C@H](CC(=O)O)NC(=O)[C@H](CC(C)C)NC(=O)C(C)(C)NC(=O)[C@@H](NC(=O)[C@H](CO)NC(=O)[C@H](Cc2ccc(O)cc2)NC(=O)[C@H](CC(=O)O)NC(=O)[C@H](CO)NC(=O)[C@@H](NC(=O)[C@H](Cc2ccccc2)NC(=O)[C@@H](NC(=O)CNC(=O)[C@H](CCC(=O)O)NC(=O)C(C)(C)NC(=O)[C@@H](N)Cc2ccc(O)cc2)[C@@H](C)O)[C@@H](C)O)[C@@H](C)CC)C(=O)N[C@@H](C)C(=O)N[C@@H](CCC(N)=O)C(=O)N1)C(C)C)C(=O)N[C@@H](C)C(=O)NCC(=O)NCC(=O)N1CCC[C@H]1C(=O)N[C@@H](CO)C(=O)N[C@@H](CO)C(=O)NCC(=O)N[C@@H](C)C(=O)N1CCC[C@H]1C(=O)N1CCC[C@H]1C(=O)N1CCC[C@H]1C(=O)N[C@@H](CO)C(N)=O [WX-014] was tested, and the EC50 ([1]; without 1% HSA) was 0.071 nM and the EC50 [2] was 0.24 nM.

B1: polypeptide compound WX-001 (peptide)
peptide: YXEGTFTSDYSIXLDKIAQKAFIKWLIAGGPSSGAPPPS
modifications: Aib at positions 2 and 13; C-terminal amide (-NH2); side-chain amino groups of Lys 20 and Lys 24 bridged by iminodiacetic acid (from Fmoc-Ida-OH) whose nitrogen carries Intermediate A-1 (fatty acid side chain, structure only in a drawing)
For B1, the “EC50 (nM), cAMP assay on GLP-1R HEK293 cells, (+) 1% HSA” value [3] was 16.6 nM, the “EC50 (nM), cAMP assay on GLP-1R HEK293 cells, (-) 1% HSA” value [3] was 0.0596 nM and the “Ratio of EC50 (+) 1% HSA to (-) 1% HSA, cAMP assay” value [3] was 279. The “EC50 (nM), cAMP assay on GIPR CHO cells, (+) 1% HSA” value [4] was 16 nM, the “EC50 (nM), cAMP assay on GIPR CHO cells, (-) 1% HSA” value [4] was 0.324 nM and the “Ratio of EC50 (+) 1% HSA to (-) 1% HSA, cAMP assay” value [4] was 49.3.
